Measured values from the supplement of paper PMC10307832.

Columns and labels:
Test in all cases: relative viability (nuclei count vs DMSO), 5 days (fraction); higher = more cells survive
SGI-1776 + Vorinostat = compound: CN1CCC(CNc2ccc3ncc(-c4cccc(OC(F)(F)F)c4)n3n2)CC1 [SGI-1776] + O=C(CCCCCCC(=O)Nc1ccccc1)NO [Vorinostat] (partner 1 µM)
In short: (§1)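 Cells from lung cancer lines were seeded into 1536-well plates and, one day later, dosed by pin tool. Treatments were either a single drug or a fixed dose of an anchor drug with five library-drug doses (not always all listed) in √10 steps. After 5 days, nuclei were stained in a one-step fixation (final 0.05% Triton X-100, 1% formaldehyde, 1 ug/ml Hoechst) and counted on 4× images, and relative viability is the treated-to-vehicle nuclei ratio, as the median of duplicate plates.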

Entinostat + Vorinostat = compound: Nc1ccccc1NC(=O)c1ccc(CNC(=O)OCc2cccnc2)cc1 [Entinostat] + O=C(CCCCCCC(=O)Nc1ccccc1)NO [Vorinostat] (partner 1 µM)
In short: as §1

[1] = compound: C1COCCN1C2=NC(=NC3=C2OC4=C3C=CC=N4)C5=CC(=CC=C5)NC(=O)C6=CN=C(C=C6)N + CCNC(=O)c1noc(-c2cc(C(C)C)c(O)cc2O)c1-c1ccc(CN2CCOCC2)cc1 [Luminespib] (partner 0.01 µM)
In short: as §1

Entinostat + Pictilisib = compound: Nc1ccccc1NC(=O)c1ccc(CNC(=O)OCc2cccnc2)cc1 [Entinostat] + CS(=O)(=O)N1CCN(Cc2cc3nc(-c4cccc5[nH]ncc45)nc(N4CCOCC4)c3s2)CC1 [Pictilisib] (partner 1 µM)
In short: as §1

## NCI-H2347
SGI-1776 + Vorinostat; first compound 0.08 µM
  relative viability: 0.598
SGI-1776 + Vorinostat; first compound 0.8 µM
  relative viability: 0.622
SGI-1776 + Vorinostat; first compound 2.53 µM
  relative viability: 0.588
SGI-1776 + Vorinostat; first compound 8 µM
  relative viability: 0.496
Entinostat + Vorinostat; first compound 0.02 µM
  relative viability: 0.368
Entinostat + Vorinostat; first compound 0.06325 µM
  relative viability: 0.643
Entinostat + Vorinostat; first compound 0.2 µM
  relative viability: 0.528
Entinostat + Vorinostat; first compound 0.6325 µM
  relative viability: 0.303
Entinostat + Vorinostat; first compound 2 µM
  relative viability: 0.264
[1]; first compound 0.02 µM
  relative viability: 0.37
[1]; first compound 0.06325 µM
  relative viability: 0.283
[1]; first compound 0.2 µM
  relative viability: 0.341
[1]; first compound 0.6325 µM
  relative viability: 0.342
[1]; first compound 2 µM
  relative viability: 0.315
Entinostat + Pictilisib; first compound 0.02 µM
  relative viability: 0.494
Entinostat + Pictilisib; first compound 0.06325 µM
  relative viability: 0.321
Entinostat + Pictilisib; first compound 0.2 µM
  relative viability: 0.333
Entinostat + Pictilisib; first compound 0.6325 µM
  relative viability: 0.216
Entinostat + Pictilisib; first compound 2 µM
  relative viability: 0.345

## NCI-H2405
SGI-1776 + Vorinostat; first compound 0.08 µM
  relative viability: 1.06
SGI-1776 + Vorinostat; first compound 0.8 µM
  relative viability: 1.16
SGI-1776 + Vorinostat; first compound 2.53 µM
  relative viability: 0.896
SGI-1776 + Vorinostat; first compound 8 µM
  relative viability: 0.748
Entinostat + Vorinostat; first compound 0.02 µM
  relative viability: 1.23
Entinostat + Vorinostat; first compound 0.06325 µM
  relative viability: 1.02
Entinostat + Vorinostat; first compound 0.2 µM
  relative viability: 0.979
Entinostat + Vorinostat; first compound 0.6325 µM
  relative viability: 0.693
Entinostat + Vorinostat; first compound 2 µM
  relative viability: 0.42
[1]; first compound 0.02 µM
  relative viability: 0.647
[1]; first compound 0.06325 µM
  relative viability: 0.644
[1]; first compound 0.2 µM
  relative viability: 0.639
[1]; first compound 0.6325 µM
  relative viability: 0.536
[1]; first compound 2 µM
  relative viability: 0.473
Entinostat + Pictilisib; first compound 0.02 µM
  relative viability: 0.483
Entinostat + Pictilisib; first compound 0.06325 µM
  relative viability: 0.678
Entinostat + Pictilisib; first compound 0.2 µM
  relative viability: 0.545
Entinostat + Pictilisib; first compound 0.6325 µM
  relative viability: 0.393
Entinostat + Pictilisib; first compound 2 µM
  relative viability: 0.222

## NCI-H3122
SGI-1776 + Vorinostat; first compound 0.08 µM
  relative viability: 1.15
SGI-1776 + Vorinostat; first compound 0.8 µM
  relative viability: 0.917
SGI-1776 + Vorinostat; first compound 2.53 µM
  relative viability: 1.07
SGI-1776 + Vorinostat; first compound 8 µM
  relative viability: 1.07
Entinostat + Vorinostat; first compound 0.02 µM
  relative viability: 1.09
Entinostat + Vorinostat; first compound 0.06325 µM
  relative viability: 0.904
Entinostat + Vorinostat; first compound 0.2 µM
  relative viability: 0.979
Entinostat + Vorinostat; first compound 0.6325 µM
  relative viability: 0.634
Entinostat + Vorinostat; first compound 2 µM
  relative viability: 0.255
[1]; first compound 0.02 µM
  relative viability: 0.0667
[1]; first compound 0.06325 µM
  relative viability: 0.0713
[1]; first compound 0.2 µM
  relative viability: 0.0835
[1]; first compound 0.6325 µM
  relative viability: 0.0904
[1]; first compound 2 µM
  relative viability: 0.077
Entinostat + Pictilisib; first compound 0.02 µM
  relative viability: 0.648
Entinostat + Pictilisib; first compound 0.06325 µM
  relative viability: 0.663
Entinostat + Pictilisib; first compound 0.2 µM
  relative viability: 0.678
Entinostat + Pictilisib; first compound 0.6325 µM
  relative viability: 0.441
Entinostat + Pictilisib; first compound 2 µM
  relative viability: 0.298

## PC-3 [JPC-3]
SGI-1776 + Vorinostat; first compound 0.08 µM
  relative viability: 0.853
SGI-1776 + Vorinostat; first compound 0.8 µM
  relative viability: 1.04
SGI-1776 + Vorinostat; first compound 2.53 µM
  relative viability: 0.756
SGI-1776 + Vorinostat; first compound 8 µM
  relative viability: 0.421
Entinostat + Vorinostat; first compound 0.02 µM
  relative viability: 1.15
Entinostat + Vorinostat; first compound 0.06325 µM
  relative viability: 0.911
Entinostat + Vorinostat; first compound 0.2 µM
  relative viability: 0.597
Entinostat + Vorinostat; first compound 0.6325 µM
  relative viability: 0.525
Entinostat + Vorinostat; first compound 2 µM
  relative viability: 0.36
[1]; first compound 0.02 µM
  relative viability: 0.704
[1]; first compound 0.06325 µM
  relative viability: 0.675
[1]; first compound 0.2 µM
  relative viability: 0.754
[1]; first compound 0.6325 µM
  relative viability: 0.675
[1]; first compound 2 µM
  relative viability: 0.613
Entinostat + Pictilisib; first compound 0.02 µM
  relative viability: 0.684
Entinostat + Pictilisib; first compound 0.06325 µM
  relative viability: 0.746
Entinostat + Pictilisib; first compound 0.2 µM
  relative viability: 0.623
Entinostat + Pictilisib; first compound 0.6325 µM
  relative viability: 0.387
Entinostat + Pictilisib; first compound 2 µM
  relative viability: 0.306

## PC-14
SGI-1776 + Vorinostat; first compound 0.08 µM
  relative viability: 0.798
SGI-1776 + Vorinostat; first compound 0.8 µM
  relative viability: 0.784
SGI-1776 + Vorinostat; first compound 2.53 µM
  relative viability: 0.771
SGI-1776 + Vorinostat; first compound 8 µM
  relative viability: 0.0624
Entinostat + Vorinostat; first compound 0.02 µM
  relative viability: 0.689
Entinostat + Vorinostat; first compound 0.06325 µM
  relative viability: 0.668
Entinostat + Vorinostat; first compound 0.2 µM
  relative viability: 0.615
Entinostat + Vorinostat; first compound 0.6325 µM
  relative viability: 0.147
Entinostat + Vorinostat; first compound 2 µM
  relative viability: 0.0636
[1]; first compound 0.02 µM
  relative viability: 0.184
[1]; first compound 0.06325 µM
  relative viability: 0.189
[1]; first compound 0.2 µM
  relative viability: 0.13
[1]; first compound 0.6325 µM
  relative viability: 0.151
[1]; first compound 2 µM
  relative viability: 0.148
Entinostat + Pictilisib; first compound 0.02 µM
  relative viability: 0.602
Entinostat + Pictilisib; first compound 0.06325 µM
  relative viability: 0.516
Entinostat + Pictilisib; first compound 0.2 µM
  relative viability: 0.5
Entinostat + Pictilisib; first compound 0.6325 µM
  relative viability: 0.189
Entinostat + Pictilisib; first compound 2 µM
  relative viability: 0.0672

## RERF-LC-KJ
SGI-1776 + Vorinostat; first compound 0.08 µM
  relative viability: 0.694
SGI-1776 + Vorinostat; first compound 0.8 µM
  relative viability: 0.745
SGI-1776 + Vorinostat; first compound 2.53 µM
  relative viability: 0.686
SGI-1776 + Vorinostat; first compound 8 µM
  relative viability: 0.48
Entinostat + Vorinostat; first compound 0.02 µM
  relative viability: 0.68
Entinostat + Vorinostat; first compound 0.06325 µM
  relative viability: 0.665
Entinostat + Vorinostat; first compound 0.2 µM
  relative viability: 0.578
Entinostat + Vorinostat; first compound 0.6325 µM
  relative viability: 0.381
Entinostat + Vorinostat; first compound 2 µM
  relative viability: 0.25
[1]; first compound 0.02 µM
  relative viability: 1.22
[1]; first compound 0.06325 µM
  relative viability: 1.3
[1]; first compound 0.2 µM
  relative viability: 1.02
[1]; first compound 0.6325 µM
  relative viability: 1.38
[1]; first compound 2 µM
  relative viability: 0.633
Entinostat + Pictilisib; first compound 0.02 µM
  relative viability: 0.695
Entinostat + Pictilisib; first compound 0.06325 µM
  relative viability: 0.527
Entinostat + Pictilisib; first compound 0.2 µM
  relative viability: 0.516
Entinostat + Pictilisib; first compound 0.6325 µM
  relative viability: 0.431
Entinostat + Pictilisib; first compound 2 µM
  relative viability: 0.375

## SK-LU-1
SGI-1776 + Vorinostat; first compound 0.08 µM
  relative viability: 0.892
SGI-1776 + Vorinostat; first compound 0.8 µM
  relative viability: 0.803
SGI-1776 + Vorinostat; first compound 2.53 µM
  relative viability: 0.697
SGI-1776 + Vorinostat; first compound 8 µM
  relative viability: 0.648
Entinostat + Vorinostat; first compound 0.02 µM
  relative viability: 0.775
Entinostat + Vorinostat; first compound 0.06325 µM
  relative viability: 0.801
Entinostat + Vorinostat; first compound 0.2 µM
  relative viability: 0.747
Entinostat + Vorinostat; first compound 0.6325 µM
  relative viability: 0.579
Entinostat + Vorinostat; first compound 2 µM
  relative viability: 0.582
[1]; first compound 0.02 µM
  relative viability: 0.202
[1]; first compound 0.06325 µM
  relative viability: 0.206
[1]; first compound 0.2 µM
  relative viability: 0.218
[1]; first compound 0.6325 µM
  relative viability: 0.214
[1]; first compound 2 µM
  relative viability: 0.181
Entinostat + Pictilisib; first compound 0.02 µM
  relative viability: 0.503
Entinostat + Pictilisib; first compound 0.06325 µM
  relative viability: 0.493
Entinostat + Pictilisib; first compound 0.2 µM
  relative viability: 0.622
Entinostat + Pictilisib; first compound 0.6325 µM
  relative viability: 0.38
Entinostat + Pictilisib; first compound 2 µM
  relative viability: 0.333

## SK-MES-1
SGI-1776 + Vorinostat; first compound 0.08 µM
  relative viability: 1.23
SGI-1776 + Vorinostat; first compound 0.8 µM
  relative viability: 1.04
SGI-1776 + Vorinostat; first compound 2.53 µM
  relative viability: 1.11
SGI-1776 + Vorinostat; first compound 8 µM
  relative viability: 0.734
Entinostat + Vorinostat; first compound 0.02 µM
  relative viability: 1.02
Entinostat + Vorinostat; first compound 0.06325 µM
  relative viability: 1.03
Entinostat + Vorinostat; first compound 0.2 µM
  relative viability: 1.26
Entinostat + Vorinostat; first compound 0.6325 µM
  relative viability: 0.954
Entinostat + Vorinostat; first compound 2 µM
  relative viability: 0.743
[1]; first compound 0.02 µM
  relative viability: 0.736
[1]; first compound 0.06325 µM
  relative viability: 0.907
[1]; first compound 0.2 µM
  relative viability: 0.816
[1]; first compound 0.6325 µM
  relative viability: 0.657
[1]; first compound 2 µM
  relative viability: 0.494
Entinostat + Pictilisib; first compound 0.02 µM
  relative viability: 0.356
Entinostat + Pictilisib; first compound 0.06325 µM
  relative viability: 0.465
Entinostat + Pictilisib; first compound 0.2 µM
  relative viability: 0.506
Entinostat + Pictilisib; first compound 0.6325 µM
  relative viability: 0.376
Entinostat + Pictilisib; first compound 2 µM
  relative viability: 0.277

## SW 1573
SGI-1776 + Vorinostat; first compound 0.08 µM
  relative viability: 1.12
SGI-1776 + Vorinostat; first compound 0.8 µM
  relative viability: 0.461
SGI-1776 + Vorinostat; first compound 2.53 µM
  relative viability: 0.607
SGI-1776 + Vorinostat; first compound 8 µM
  relative viability: 0.312
Entinostat + Vorinostat; first compound 0.02 µM
  relative viability: 0.698
Entinostat + Vorinostat; first compound 0.06325 µM
  relative viability: 0.891
Entinostat + Vorinostat; first compound 0.2 µM
  relative viability: 0.88
Entinostat + Vorinostat; first compound 0.6325 µM
  relative viability: 0.422
Entinostat + Vorinostat; first compound 2 µM
  relative viability: 0.43
[1]; first compound 0.02 µM
  relative viability: 0.152
[1]; first compound 0.06325 µM
  relative viability: 0.232
[1]; first compound 0.2 µM
  relative viability: 0.118
[1]; first compound 0.6325 µM
  relative viability: 0.176
[1]; first compound 2 µM
  relative viability: 0.3
Entinostat + Pictilisib; first compound 0.02 µM
  relative viability: 0.518
Entinostat + Pictilisib; first compound 0.06325 µM
  relative viability: 0.506
Entinostat + Pictilisib; first compound 0.2 µM
  relative viability: 0.451
Entinostat + Pictilisib; first compound 0.6325 µM
  relative viability: 0.495
Entinostat + Pictilisib; first compound 2 µM
  relative viability: 0.344
